These results are taken from US20240199623A1 (ILDONG PHARMACEUTICAL CO., LTD., priority 2020, published 2024).

Each structure is given as a SMILES string.

Data set [1] has as its target T1, human wild type-CFTR (Homo sapiens, UniProt P13569). The experiment in a line: Short-circuit current measurement. The data set is classed as cell-based. On the set-up: expressed in transfected cells. The conditions noted are these: FRT cells expressing human wild type-CFTR; Forskolin 20 μM signal used as 100% activity; read-out: Short-circuit current measurement (EC50) Concentration range. The method in brief:
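FRT monolayers stably carrying human wild-type CFTR were mounted in Ussing chambers; forskolin, compounds and the inhibitor CFTRinh-172 went to apical and basolateral sides. Read-outs were apical membrane current and short-circuit current, recorded at 4 Hz.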

Data set [2] concerns the target T2, Human recombinant PDE4B 1 (Homo sapiens, UniProt Q07343).
T2 construct: purchased BPS Bioscience; host or cells: insect Sf9 cells
The experiment in a line: Human phosphodiesterase 4 (PDE4) inhibition, PDE4B 1. It counts as biochemical. As to conditions: read-out: % inhibition range at 10 uM PDE4B1; 10 uM test compound. The protocol:
(§1) […] Human recombinant PDE4A1A, PDE4B 1, PDE4C1 and PDE4D2 are respectively expressed in each host cell (insect Sf9 cells, BPS Bioscience). Preincubation of 10 μM test compounds or vehicle was proceeded with 20 ng/ml PDE4A1A or 4 ng/ml PDE4B 1 or 8 ng/ml PDE4C1 or 5 ng/ml PDE4D2 enzyme in Tris-HCl buffer pH 7.2 for 15 minutes at 25° C. 100 nM fluorescein (FAM) labeled cAMP for another 30 minutes incubation period was added in order to initiate the enzymatic reaction and addition of IMAP binding solution was followed for its termination. Specifically, IMAP complexes with phosphate groups on nucleotide monophosphate generated from cyclic nucleotides through PDE activity. The amount of complex formed is determined by reading spectrofluorimetrical signal at 470 nm/525 nm.

In the next data set the target is T3, Human recombinant PDE4D2 (Homo sapiens, UniProt Q08499).
T3 construct: purchased BPS Bioscience; host or cells: insect Sf9 cells
Kind of data set: Human phosphodiesterase 4 (PDE4) inhibition, PDE4D2. It counts as biochemical. As to conditions: read-out: % inhibition range at 10 uM PDE4D2; 10 uM test compound. The protocol: as §1

The target in data set [3] is T4, Human recombinant PDE4A1A (Homo sapiens, UniProt P27815).
T4 construct: purchased BPS Bioscience; host or cells: insect Sf9 cells
Kind of data set: Human phosphodiesterase 4 (PDE4) inhibition, PDE4A1A. The conditions noted are these: read-out: % inhibition range at 10 uM PDE4A1A; 10 uM test compound. It counts as biochemical. As for the experimental part:
as §1

The nature of data set [4]: Phosphate-buffered saline (PBS) solubility of compounds. The data set is classed as physicochemical. As to conditions: aqueous buffer, thermodynamic from solid, PBS pH 7.5, 0.5 mg/mL, vortexed 90 min, filtered, LC-MS/MS, read-out: Solubility Range. As for the experimental part:
PBS solutions (pH 7.5) were prepared according to the following compositions and stored at 4° C. Test compounds were dissolved in PBS (pH 7.5) at 0.5 mg/mL and vortexed for 90 min. The PBS solution was sequentially filtered through a 0.45, 1.2, […] syringe filter. Concentration of test compounds were determined using LC-MS/MS with appropriate dilution of the samples.

Data set [5] addresses T1, human wild type-CFTR. The experiment in a line: Cell-based YFP assay. On the set-up: expressed in transfected cells; host or cells: CHO-K1 (Chinese hamster ovary). The conditions noted are these: CHO-K1 cells expressing human wild type-CFTR and YFP-H148Q/I152L; forskolin 20 μM = 100% activity; read-out: Cell-based YFP Assay (EC50) Concentration Range. A digest of the protocol: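 I⁻-driven YFP fluorescence quenching at 37 °C: 2 s baseline, addition of 140 mM iodide solution, then 14 s of readings at 0.4 s intervals. Cells were CHO-K1 expressing human wild-type CFTR plus YFP-H148Q/I152L. EC50 derived from averaged triplicates.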

In a further data set the test system is C57BL/6 female mice. Kind of data set: Scopolamine induced tear volume reduction model. As to conditions: scopolamine-injected mice, ophthalmic solution topically on both eyes 3 times a day, phenol red thread; average if evaluated twice. It counts as in vivo, mouse. A digest of the protocol:
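Seven-week-old female C57BL/6 mice received scopolamine (0.2 ml of 2.5 mg/mL) s.c. 3 times daily; test compounds in PBS with 1% surfactant applied topically to both eyes 3 times daily. Tear volume measured by phenol red thread length before dosing and 1 h after last administration; duplicate evaluations averaged.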

In another data set the target is T5, Human recombinant PDE4C1 (Homo sapiens, UniProt Q08493).
T5 construct: purchased BPS Bioscience; host or cells: insect Sf9 cells
The experiment in a line: Human phosphodiesterase 4 (PDE4) inhibition, PDE4C1. The data set is classed as biochemical. The conditions noted are these: read-out: % inhibition range at 10 uM PDE4C1; 10 uM test compound. As for the experimental part: as §1

T1 sequence (P13569 whole entry): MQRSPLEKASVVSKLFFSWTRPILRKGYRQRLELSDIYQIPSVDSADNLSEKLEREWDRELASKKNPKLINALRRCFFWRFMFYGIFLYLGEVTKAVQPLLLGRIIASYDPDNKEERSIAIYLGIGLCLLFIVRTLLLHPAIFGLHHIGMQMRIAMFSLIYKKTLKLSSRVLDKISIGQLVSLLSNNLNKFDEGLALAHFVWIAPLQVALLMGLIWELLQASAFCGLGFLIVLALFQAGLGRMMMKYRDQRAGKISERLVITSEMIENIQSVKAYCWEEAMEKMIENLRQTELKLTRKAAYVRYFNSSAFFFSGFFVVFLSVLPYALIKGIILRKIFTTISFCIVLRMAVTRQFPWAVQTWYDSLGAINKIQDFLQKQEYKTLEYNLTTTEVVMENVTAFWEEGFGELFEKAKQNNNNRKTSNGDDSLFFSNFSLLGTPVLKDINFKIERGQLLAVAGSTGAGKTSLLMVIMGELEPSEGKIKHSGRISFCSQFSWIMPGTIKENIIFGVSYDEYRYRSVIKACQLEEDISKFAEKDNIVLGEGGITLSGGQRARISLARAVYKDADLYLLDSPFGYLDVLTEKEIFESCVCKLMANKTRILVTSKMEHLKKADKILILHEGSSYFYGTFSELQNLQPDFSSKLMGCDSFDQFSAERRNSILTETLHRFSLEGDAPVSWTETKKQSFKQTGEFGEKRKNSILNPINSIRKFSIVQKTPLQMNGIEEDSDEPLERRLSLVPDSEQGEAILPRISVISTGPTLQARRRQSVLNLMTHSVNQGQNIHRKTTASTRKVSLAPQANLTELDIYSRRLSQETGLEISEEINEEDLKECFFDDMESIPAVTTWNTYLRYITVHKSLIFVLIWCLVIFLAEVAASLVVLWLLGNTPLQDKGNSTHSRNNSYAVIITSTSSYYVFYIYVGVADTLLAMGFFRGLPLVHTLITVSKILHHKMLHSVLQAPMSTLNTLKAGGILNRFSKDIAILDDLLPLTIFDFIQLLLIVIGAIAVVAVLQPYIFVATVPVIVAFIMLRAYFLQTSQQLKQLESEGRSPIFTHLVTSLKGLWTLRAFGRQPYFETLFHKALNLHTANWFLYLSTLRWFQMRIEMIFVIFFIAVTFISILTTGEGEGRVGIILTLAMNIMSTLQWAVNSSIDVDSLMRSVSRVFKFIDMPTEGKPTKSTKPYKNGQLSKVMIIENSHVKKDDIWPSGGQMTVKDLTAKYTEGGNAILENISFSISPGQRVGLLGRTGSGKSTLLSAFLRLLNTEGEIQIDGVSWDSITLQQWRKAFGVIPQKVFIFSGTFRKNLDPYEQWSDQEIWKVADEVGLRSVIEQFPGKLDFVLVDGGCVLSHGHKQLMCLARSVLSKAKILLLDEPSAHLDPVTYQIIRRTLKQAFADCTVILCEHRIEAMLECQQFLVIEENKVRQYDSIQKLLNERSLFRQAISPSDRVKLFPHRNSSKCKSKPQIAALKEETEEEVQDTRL
T3 sequence (Q08499 303-809 limits assumed): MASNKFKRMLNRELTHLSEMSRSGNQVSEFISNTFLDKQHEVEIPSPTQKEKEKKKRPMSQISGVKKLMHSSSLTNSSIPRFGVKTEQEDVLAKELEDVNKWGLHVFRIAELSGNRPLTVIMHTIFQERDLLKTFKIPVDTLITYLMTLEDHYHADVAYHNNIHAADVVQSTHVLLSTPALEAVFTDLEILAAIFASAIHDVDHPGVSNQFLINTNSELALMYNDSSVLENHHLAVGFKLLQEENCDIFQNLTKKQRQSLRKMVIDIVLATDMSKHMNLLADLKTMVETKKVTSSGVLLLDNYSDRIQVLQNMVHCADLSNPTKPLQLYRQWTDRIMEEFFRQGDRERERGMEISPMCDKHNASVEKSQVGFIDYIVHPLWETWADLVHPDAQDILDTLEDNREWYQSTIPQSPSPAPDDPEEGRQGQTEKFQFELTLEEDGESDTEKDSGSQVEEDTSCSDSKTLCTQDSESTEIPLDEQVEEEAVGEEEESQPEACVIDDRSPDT
T2 sequence (Q07343 whole entry): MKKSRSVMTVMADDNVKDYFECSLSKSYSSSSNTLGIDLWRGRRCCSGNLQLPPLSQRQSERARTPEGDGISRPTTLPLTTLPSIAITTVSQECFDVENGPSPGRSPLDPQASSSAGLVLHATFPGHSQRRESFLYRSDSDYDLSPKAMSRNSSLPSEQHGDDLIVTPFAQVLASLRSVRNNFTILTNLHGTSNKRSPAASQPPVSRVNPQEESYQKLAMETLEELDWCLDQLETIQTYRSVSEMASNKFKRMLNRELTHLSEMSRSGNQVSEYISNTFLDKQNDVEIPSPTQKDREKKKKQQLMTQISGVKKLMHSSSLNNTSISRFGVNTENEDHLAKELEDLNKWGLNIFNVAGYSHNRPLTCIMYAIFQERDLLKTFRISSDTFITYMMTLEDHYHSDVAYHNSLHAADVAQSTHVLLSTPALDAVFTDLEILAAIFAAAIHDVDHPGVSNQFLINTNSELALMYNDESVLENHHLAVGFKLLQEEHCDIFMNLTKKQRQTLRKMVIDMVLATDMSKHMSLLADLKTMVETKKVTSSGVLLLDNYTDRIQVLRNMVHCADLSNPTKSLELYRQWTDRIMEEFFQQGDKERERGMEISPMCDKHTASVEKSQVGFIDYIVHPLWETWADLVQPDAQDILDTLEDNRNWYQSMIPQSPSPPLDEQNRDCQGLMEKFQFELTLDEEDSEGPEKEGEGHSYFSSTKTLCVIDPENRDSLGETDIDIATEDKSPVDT
T4 sequence (P27815 1-647 isoform P27815-4): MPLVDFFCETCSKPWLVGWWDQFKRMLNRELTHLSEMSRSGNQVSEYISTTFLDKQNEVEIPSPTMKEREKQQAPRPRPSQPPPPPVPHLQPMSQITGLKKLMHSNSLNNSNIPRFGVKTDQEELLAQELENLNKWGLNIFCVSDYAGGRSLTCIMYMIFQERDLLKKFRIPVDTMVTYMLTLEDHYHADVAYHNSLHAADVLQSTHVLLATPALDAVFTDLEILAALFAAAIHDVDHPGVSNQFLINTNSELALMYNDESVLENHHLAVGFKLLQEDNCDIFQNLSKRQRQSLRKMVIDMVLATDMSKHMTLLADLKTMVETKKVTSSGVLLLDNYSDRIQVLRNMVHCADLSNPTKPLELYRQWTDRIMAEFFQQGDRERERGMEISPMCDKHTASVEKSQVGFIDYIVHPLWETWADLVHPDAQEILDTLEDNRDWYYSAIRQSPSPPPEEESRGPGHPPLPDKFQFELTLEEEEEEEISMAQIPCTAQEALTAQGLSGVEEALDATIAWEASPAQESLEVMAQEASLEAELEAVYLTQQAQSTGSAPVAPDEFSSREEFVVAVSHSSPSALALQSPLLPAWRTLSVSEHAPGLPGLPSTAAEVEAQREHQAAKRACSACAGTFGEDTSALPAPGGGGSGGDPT
T5 sequence (Q08493 whole entry): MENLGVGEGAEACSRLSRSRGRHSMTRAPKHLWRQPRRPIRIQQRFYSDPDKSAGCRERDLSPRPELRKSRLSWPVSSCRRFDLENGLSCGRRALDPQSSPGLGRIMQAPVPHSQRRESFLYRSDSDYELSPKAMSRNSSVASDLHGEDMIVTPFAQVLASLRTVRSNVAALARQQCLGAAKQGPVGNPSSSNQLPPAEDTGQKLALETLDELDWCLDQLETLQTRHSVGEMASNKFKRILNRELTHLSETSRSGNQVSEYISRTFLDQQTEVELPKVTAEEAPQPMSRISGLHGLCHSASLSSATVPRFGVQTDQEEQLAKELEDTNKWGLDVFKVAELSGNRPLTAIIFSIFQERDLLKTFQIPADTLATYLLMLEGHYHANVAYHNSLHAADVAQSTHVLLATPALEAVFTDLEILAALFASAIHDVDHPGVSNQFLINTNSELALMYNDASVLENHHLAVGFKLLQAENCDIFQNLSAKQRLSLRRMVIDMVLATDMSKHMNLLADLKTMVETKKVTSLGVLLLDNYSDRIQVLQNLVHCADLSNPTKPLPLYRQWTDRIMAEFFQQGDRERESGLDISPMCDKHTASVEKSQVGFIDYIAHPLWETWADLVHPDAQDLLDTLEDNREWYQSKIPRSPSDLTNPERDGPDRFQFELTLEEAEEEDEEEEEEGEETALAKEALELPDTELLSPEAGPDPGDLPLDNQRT

As a reminder, the inhibition is how much of the control response was suppressed. By solubility is commonly meant the concentration that dissolves in the medium under given conditions. Regarding `COc1ccc(-c2ccnc3cc(C(=O)Nc4ccc(N)cc4)nn23)cc1OC` [Compound 257, N-(4-aminophenyl)-7-(3,4-dimethoxyphenyl)pyrazolo [1,5-a]pyrimidine-2-carboxamide], the EC50 on human wild type-CFTR [1] was 200 to 2000 nM; on human wild type-CFTR [5], less than 200 nM. Besides, the inhibition at 10 µM (in data set [2]; on Human recombinant PDE4D2; in data set [3]; at Human recombinant PDE4C1) was greater than 80% each time. In addition, the solubility at 90 min in data set [4] was less than 0.1 µg/mL. Moreover, the “Ratio of tear volume (test compound to vehicle)” value in the data set on C57BL/6 female mice is on record as 1.16.
